Results: ChEMBL document CHEMBL1140045, “Crystal structures of rat vitamin D receptor bound to adamantyl vitamin D analogs: structural basis for vitamin D receptor antagonism and partial agonism” (J Med Chem, 2008)
Active and inactive are the calls of the source. The rule behind the calls is not given here.

Key:
Vitamin D3 receptor [1] = biological target: T1, Vitamin D3 receptor (Homo sapiens, UniProt P11473); assay: Antagonist activity at VDR expressed in COS7 cells assessed as inhibition of 1,25-Dihydroxyvitamin D3-induced response by transient transcription assay; assay type: functional, cell-based, COS-7
T1 sequence (P11473 whole entry): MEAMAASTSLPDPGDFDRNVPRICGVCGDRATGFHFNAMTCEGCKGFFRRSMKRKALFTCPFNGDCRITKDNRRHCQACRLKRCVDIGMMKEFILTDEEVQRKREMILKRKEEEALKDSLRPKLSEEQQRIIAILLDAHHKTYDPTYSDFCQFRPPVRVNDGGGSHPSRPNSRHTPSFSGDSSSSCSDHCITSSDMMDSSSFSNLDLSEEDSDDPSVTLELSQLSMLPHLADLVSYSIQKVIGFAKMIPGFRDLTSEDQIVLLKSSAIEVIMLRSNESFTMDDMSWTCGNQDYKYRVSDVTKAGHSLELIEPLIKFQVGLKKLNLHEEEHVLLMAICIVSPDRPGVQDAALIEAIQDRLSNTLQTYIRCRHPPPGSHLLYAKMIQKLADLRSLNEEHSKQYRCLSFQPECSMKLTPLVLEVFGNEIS

Vitamin D3 receptor [2] = biological target: T1, Vitamin D3 receptor; assay: Agonist activity at VDR assessed as receptor transactivation by transient transcription assay; assay type: functional
[3] = biological target: T2, Vitamin D3 receptor (Homo sapiens) (UniProt P11473); assay: Binding affinity to VDR relative to 1,25-Dihydroxyvitamin D3
T2 sequence (whole entry): T1 sequence (P11473 whole entry)

[4] = biological target: T2, Vitamin D3 receptor (Homo sapiens); assay: Agonist activity at VDR assessed as receptor transactivation by transient transcription assay relative to 1,25-Dihydroxyvitamin D3; assay type: functional

IC50 (Vitamin D3 receptor [1]) [nM] | EC50 (Vitamin D3 receptor [2]) [nM] | Activity [3] | Activity [4] [%] | SMILES
3 | 1 | 75% | 15 | C=C1[C@H](O)CC(=C/C=C2\CCC[C@]3(C)[C@@H]([C@@H](C)/C=C/C[C@@H](O)C45CC6CC(CC(C6)C4)C5)CC[C@@H]23)C[C@H]1O
 | 24 | Active | 10 | C=C1[C@H](O)CC(=C/C=C2\CCC[C@]3(C)[C@@H]([C@@H](C)/C=C/C[C@@H](O)CC45CC6CC(CC(C6)C4)C5)CC[C@@H]23)C[C@H]1O
 | 0.02 | 20% | 74 | C=C1[C@H](O)CC(=C/C=C2\CCC[C@]3(C)[C@@H]([C@H](C)/C=C/[C@@H](O)C45CC6CC(CC(C6)C4)C5)CC[C@@H]23)C[C@H]1O
